From publication PMC3634089 (The Korean Journal of Physiology & Pharmacology : …, 2013)

Target: GABAC receptor ρ1 subunit (Homo sapiens, UniProt P24046)
Assay: two-electrode voltage clamp in Xenopus oocytes expressing human ρ[…]
Assay type: cell-based

GABAC receptor ρ1 subunit, sequence (P24046 22-479): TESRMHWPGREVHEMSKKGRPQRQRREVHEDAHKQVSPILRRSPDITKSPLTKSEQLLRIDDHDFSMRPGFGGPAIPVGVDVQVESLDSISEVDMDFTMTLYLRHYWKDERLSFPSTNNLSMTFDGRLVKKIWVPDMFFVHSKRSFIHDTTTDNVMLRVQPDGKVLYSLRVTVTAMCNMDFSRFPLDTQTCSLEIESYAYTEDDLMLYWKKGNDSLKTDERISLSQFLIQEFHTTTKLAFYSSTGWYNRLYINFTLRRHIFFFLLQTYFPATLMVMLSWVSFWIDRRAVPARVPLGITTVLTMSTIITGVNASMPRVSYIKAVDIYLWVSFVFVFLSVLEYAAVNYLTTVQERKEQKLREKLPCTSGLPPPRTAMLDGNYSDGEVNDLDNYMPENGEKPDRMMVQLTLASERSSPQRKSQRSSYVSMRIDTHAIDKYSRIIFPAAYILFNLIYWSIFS

CC(C)=CCC[C@](C)(O)[C@H]1CC[C@]2(C)[C@@H]1[C@H](O)C[C@@H]1[C@@]3(C)CC[C@H](O)C(C)(C)[C@@H]3[C@@H](O)C[C@]12C [M4, protopanaxatriol]
IC50: 45.7 ± 3.9 µM
